From paper PMC3396595, “Identification of a Novel Calcium Binding Motif Based on the Detection of Sequence Insertions in the Animal Peroxidase Domain of Bacterial Proteins” (PLoS ONE, 2012)

Molecular target: PepA-Nter (N-terminal ANP-like domain of PepA, PP_2561) (Pseudomonas putida, UniProt Q88JT6)
Assay: peroxidase assay, quinoneimine formation at […] nm
Type: biochemical
Settings: heme-reconstituted; electron donor with phenol; H2O2 0.25-45 mM varied; potassium phosphate pH 7.0, 25 °C

Sequence of PepA-Nter (N-terminal ANP-like domain of PepA, PP_2561) (Q88JT6 1-875 limits assumed): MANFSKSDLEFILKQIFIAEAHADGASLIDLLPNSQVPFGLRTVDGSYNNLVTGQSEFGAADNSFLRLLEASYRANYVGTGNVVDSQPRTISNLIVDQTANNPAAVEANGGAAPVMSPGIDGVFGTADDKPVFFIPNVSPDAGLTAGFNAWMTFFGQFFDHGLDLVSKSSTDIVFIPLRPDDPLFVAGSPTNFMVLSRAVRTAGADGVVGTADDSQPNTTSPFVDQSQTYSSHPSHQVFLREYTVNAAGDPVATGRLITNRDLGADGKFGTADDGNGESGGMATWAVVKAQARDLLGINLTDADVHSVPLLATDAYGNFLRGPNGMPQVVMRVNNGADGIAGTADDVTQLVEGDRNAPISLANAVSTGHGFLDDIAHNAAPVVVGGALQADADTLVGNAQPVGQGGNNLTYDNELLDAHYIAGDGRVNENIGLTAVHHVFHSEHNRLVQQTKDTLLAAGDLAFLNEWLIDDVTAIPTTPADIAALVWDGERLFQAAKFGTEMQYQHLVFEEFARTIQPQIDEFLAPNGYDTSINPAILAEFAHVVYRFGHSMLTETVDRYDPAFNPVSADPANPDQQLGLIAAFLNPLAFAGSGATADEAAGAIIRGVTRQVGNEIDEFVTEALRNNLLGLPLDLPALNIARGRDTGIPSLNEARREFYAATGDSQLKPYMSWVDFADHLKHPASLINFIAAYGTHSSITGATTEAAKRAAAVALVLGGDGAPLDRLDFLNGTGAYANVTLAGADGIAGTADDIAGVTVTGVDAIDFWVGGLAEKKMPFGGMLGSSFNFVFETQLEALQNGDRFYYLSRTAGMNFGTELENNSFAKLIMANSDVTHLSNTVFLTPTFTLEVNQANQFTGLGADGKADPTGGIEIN

Q: For `Cc1c(N)c(=O)n(-c2ccccc2)n1C` [4-aminoantipyrine], which “peroxidase assay, quinoneimine formation at 510 nm” value is on record?
A: oxidation of 4-aminoantipyrine (same electron donor than the one used in this study)
